Data: the NIST ThermoML archive (doi:10.1016/j.fluid.2018.09.026)
“And” between values parts separate entries of the source, which are not always exact repeats. Identical values can stand only once.

Conditions: Liquid; for viscosity: Vibrating wire viscometry; for mass density: Vibrating tube method

OCCOCCOCCO [triethylene glycol]
Conditions	mass density	viscosity
303 K, 65190 kPa	–	48.95 mPa·s
303 K, 66350 kPa	–	49.26 mPa·s
303.15 K, 100 kPa	1115.2 kg/m3 and 1115.1 kg/m3	–
303.15 K, 630 kPa	1115.4 kg/m3	–
303.15 K, 1130 kPa	1115.6 kg/m3	–
303.15 K, 1620 kPa	1115.9 kg/m3	–
303.15 K, 2140 kPa	1116.1 kg/m3	–
303.15 K, 3070 kPa	1116.5 kg/m3	–
303.15 K, 5080 kPa	1117.4 kg/m3	–
303.15 K, 6960 kPa	1118.3 kg/m3	–
303.15 K, 9960 kPa	1119.6 kg/m3	–
303.15 K, 14840 kPa	1121.7 kg/m3	–
303.15 K, 19750 kPa	1123.8 kg/m3	–
303.15 K, 24670 kPa	1125.9 kg/m3	–
303.15 K, 29570 kPa	1127.9 kg/m3	–
303.15 K, 34500 kPa	1129.9 kg/m3	–
303.15 K, 39360 kPa	1131.9 kg/m3	–
303.15 K, 44300 kPa	1133.8 kg/m3	–
303.15 K, 49190 kPa	1135.7 kg/m3	–
303.15 K, 54090 kPa	1137.6 kg/m3	–
303.15 K, 58850 kPa	1139.3 kg/m3	–
303.15 K, 63890 kPa	1141.2 kg/m3	–
303.15 K, 68750 kPa	1142.9 kg/m3	–
313.15 K, 100 kPa	1107.4 kg/m3	–
313.15 K, 670 kPa	1107.6 kg/m3	–
313.15 K, 1130 kPa	1107.9 kg/m3	–
313.15 K, 1600 kPa	1108.1 kg/m3	–
313.15 K, 2080 kPa	1108.3 kg/m3	–
313.15 K, 3100 kPa	1108.8 kg/m3	–
313.15 K, 5030 kPa	1109.7 kg/m3	–
313.15 K, 7010 kPa	1110.6 kg/m3	–
313.15 K, 10010 kPa	1112 kg/m3	–
313.15 K, 14880 kPa	1114.2 kg/m3	–
313.15 K, 19750 kPa	1116.4 kg/m3	–
313.15 K, 24680 kPa	1118.6 kg/m3	–
313.15 K, 29560 kPa	1120.6 kg/m3	–
313.15 K, 34510 kPa	1122.7 kg/m3	–
313.15 K, 39330 kPa	1124.7 kg/m3	–
313.15 K, 44290 kPa	1126.7 kg/m3	–
313.15 K, 49180 kPa	1128.6 kg/m3	–
313.15 K, 54160 kPa	1130.6 kg/m3	–
313.15 K, 59000 kPa	1132.4 kg/m3	–
313.15 K, 63910 kPa	1134.3 kg/m3	–
313.15 K, 68840 kPa	1136 kg/m3	–
313.26 K, 170 kPa	–	18.68 mPa·s [middle of 4 runs]
313.26 K, 510 kPa	–	18.97 mPa·s and 18.84 mPa·s and 18.73 mPa·s
313.26 K, 520 kPa	–	18.83 mPa·s
313.26 K, 930 kPa	–	18.88 mPa·s [middle of 6 runs]
313.26 K, 4460 kPa	–	19.45 mPa·s
313.26 K, 4470 kPa	–	19.52 mPa·s [middle of 4 runs]
313.26 K, 9660 kPa	–	20.02 mPa·s
313.26 K, 9670 kPa	–	20.2 mPa·s and 20.18 mPa·s
313.26 K, 19980 kPa	–	22.07 mPa·s and 21.92 mPa·s
313.26 K, 19990 kPa	–	21.69 mPa·s
313.26 K, 29400 kPa	–	23.4 mPa·s and 23.28 mPa·s
313.26 K, 29410 kPa	–	23.3 mPa·s
313.26 K, 29530 kPa	–	23.21 mPa·s
313.26 K, 29540 kPa	–	23.53 mPa·s
313.26 K, 29550 kPa	–	23.54 mPa·s
313.26 K, 29570 kPa	–	23.18 mPa·s
313.26 K, 49800 kPa	–	26.84 mPa·s
313.26 K, 49830 kPa	–	27.18 mPa·s
313.26 K, 49920 kPa	–	27.22 mPa·s
313.26 K, 49950 kPa	–	26.89 mPa·s
313.26 K, 64360 kPa	–	29.73 mPa·s
313.26 K, 64840 kPa	–	30.3 mPa·s
313.26 K, 65380 kPa	–	30.08 mPa·s
313.26 K, 66900 kPa	–	30.18 mPa·s
323.15 K, 100 kPa	1099.6 kg/m3 and 1099.5 kg/m3	–
323.15 K, 590 kPa	1099.8 kg/m3	–
323.15 K, 1140 kPa	1100 kg/m3	–
323.15 K, 1600 kPa	1100.3 kg/m3	–
323.15 K, 2080 kPa	1100.5 kg/m3	–
323.15 K, 3020 kPa	1101 kg/m3	–
323.15 K, 5050 kPa	1101.9 kg/m3	–
323.15 K, 7000 kPa	1102.9 kg/m3	–
323.15 K, 9970 kPa	1104.3 kg/m3	–
323.15 K, 14870 kPa	1106.7 kg/m3	–
323.15 K, 19780 kPa	1108.9 kg/m3	–
323.15 K, 24700 kPa	1111.2 kg/m3	–
323.15 K, 29650 kPa	1113.3 kg/m3	–
323.15 K, 34470 kPa	1115.4 kg/m3	–
323.15 K, 39340 kPa	1117.5 kg/m3	–
323.15 K, 44250 kPa	1119.6 kg/m3	–
323.15 K, 49170 kPa	1121.6 kg/m3	–
323.15 K, 54080 kPa	1123.5 kg/m3	–
323.15 K, 58970 kPa	1125.5 kg/m3	–
323.15 K, 63800 kPa	1127.3 kg/m3	–
323.15 K, 68780 kPa	1129.2 kg/m3	–
333.15 K, 100 kPa	1091.7 kg/m3	–
333.15 K, 660 kPa	1092 kg/m3	–
333.15 K, 1110 kPa	1092.2 kg/m3	–
333.15 K, 1600 kPa	1092.5 kg/m3	–
